{"source": "patent US20190046486A1", "about": "“COMPOSITIONS AND METHODS FOR THE TREATMENT OF NEURONAL INJURY” (AXCELLA HEALTH INC., priority 2017, published 2019)", "key": {"IL-6": {"test_system": "IL-6", "experiment": "IL-6 levels in LPS-activated primary microglia cells treated with amino acid combinations", "type": "cell-based, mouse", "conditions": "for IL-6 Measurements, Mean: mouse microglia supernatant, 12 h after LPS 100 ng/ml, LIV 2.5 mM, NAC, ALCAR, CR 1 mM each, 6 replicates", "experimental": "(§1) Pups were decapitated, brains removed from the skulls, cortices dissected and collected in Calcium and Magnesium free Hanks Balanced Salt Solution (CMF-HBSS) on ice. Cortices were chopped with a sterile razor blade in chop solution (CMF-HBSS) and digested in 2 ml digestion solution (0.25% trypsin in CMF-HBSS) in a 15 ml sterile plastic tube for 20 minutes at 37° C. in a water bath. After removing as much as possible of the digestion solution (approximately 1 ml), the digestion was stopped by adding 3 ml stop solution (0.01% DNaseI and 0.5% trypsin inhibitor in FCS). Cortices were triturated 10-15 times with a fire-polished Pasteur pipette and centrifuged at 300 g for 5 minutes. The pellet was resuspended in 1 ml nutrition medium (10% FCS, 1% Penicillin-Streptomycin, 2 mM L-glutamine in DMEM) per pup. Cells were seeded into poly-D-lysine pre-coated T75 flasks containing 14 ml nutrition medium (one pup per flask). Medium was changed every 3 to 4 days and cells were cultured at 37° C., 95% humidity and 5% CO2 for approximately 14 days before harvesting the microglia.\n(§2) After approximately 14 days of cultivation microglia cells were harvested by shaking the T75 flasks at 200 rpm at 37° C. for 2 h. After visual inspection confirming that the microglia cells had detached, the supernatants containing the microglia were transferred to 50 ml tubes (supernatant from 1 flask into 1 tube) and centrifuged at 300 g for 10 minutes. The pelleted microglia cells were resuspended in 2 ml of nutrition medium. Microglia cells were seeded into uncoated plates 1×10^5 cells/well (96 well plate) and incubated for 2 h at 37° C. Then the plates were rocked at 100 rpm for 5 minutes to detach the oligodendrocytes. The medium containing the oligodendrocytes was exchanged with fresh medium and microglia cells were incubated for 2 days at 37° C. before LPS treatment. 24 h before LPS stimulation single amino acids and combinations were administered. Next, 1 h before LPS stimulation, medium was changed to treatment medium (DMEM, 5% FBS, 2 mM L-glutamine) containing amino acids or combinations. Cells were maintained in treatment medium for the remaining culture period. One hour after changing cells to treatment medium, cells were stimulated with LPS (100 ng/ml) for 12 h in total. Cells treated with vehicle, LPS alone served as controls.\n(§3) After 12 h of LPS stimulation, cell supernatants were collected and cytokines IL-6 and TNFα were measured. […]\n(§4) Levels of TNFα an IL-6 were measured in supernatants of primary microglia cells collected 12 h after LPS stimulation. Cytokines were measured by an immunosorbent assay (U-PLEX Custom Mouse Cytokine, Mesoscale Discovery) according to the instructions of the manufacturer and evaluated in comparison to calibration curves provided in the kit. […]"}, "TNFα": {"test_system": "TNFα", "experiment": "TNFα levels in LPS-activated primary microglia cells treated with amino acid combinations", "type": "cell-based, mouse", "conditions": "for TNFα Measurements, Mean: mouse microglia supernatant, 12 h after LPS 100 ng/ml, LIV 2.5 mM, NAC, ALCAR, CR 1 mM each, 6 replicates", "experimental": "as §1, §2, §3, §4"}, "[1]": {"conditions": "mouse microglia activated with LPS"}}, "data": [{"smiles": "CC(=O)O[C@H](CC(=O)[O-])C[N+](C)(C)C", "note": "[ALCAR, acetyl-1-carnitine]", "values": [{"measurement": "IL-6 Measurements, Mean", "setting": "IL-6", "result": 59600, "unit": "pg per ml"}, {"measurement": "TNFα Measurements, Mean", "setting": "TNFα", "result": 21897, "unit": "pg per ml"}]}, {"smiles": "CN(CC(=O)O)C(=N)N", "note": "[CR, creatine]", "values": [{"measurement": "IL-6 Measurements, Mean", "setting": "IL-6", "result": 56492, "unit": "pg per ml"}, {"measurement": "TNFα Measurements, Mean", "setting": "TNFα", "result": 17884, "unit": "pg per ml"}]}, {"smiles": "CC(=O)N[C@@H](CS)C(=O)O", "note": "[NAC, N-acetylcysteine]", "values": [{"measurement": "IL-6 protein level compared to vehicle treated with LPS stimulus", "setting": "IL-6; [1]", "result": "reduced"}, {"measurement": "IL-6 Measurements, Mean", "setting": "IL-6", "result": 46749, "unit": "pg per ml"}, {"measurement": "TNFα protein level compared to vehicle treated with LPS stimulus", "setting": "TNFα; [1]", "result": "reduced"}, {"measurement": "TNFα Measurements, Mean", "setting": "TNFα", "result": 14814, "unit": "pg per ml"}]}]}
